Laboratory results taken from US7547698B2, “Bicyclic heterocyclic derivatives and their use as inhibitors of stearoyl-coadesaturase (SCD)” (Xenon Pharmaceuticals Inc., priority 2004, dated 2009).

| SMILES | melting point [°C] |
| --- | --- |
| CCCCCNC(=O)c1cn2nc(N3CCN(C(=O)c4ccccc4C(F)(F)F)CC3)ccc2n1 | 179 to 180 |
| CCCCNC(=O)c1cn2nc(N3CCN(C(=O)c4ccccc4C(F)(F)F)CC3)ccc2n1 [Example 1.6, 6-[4-(2-TRIFLUOROMETHYLBENZOYL)PIPERAZIN-1-YL]IMIDAZO[1,2-B]PYRIDAZINE-2-CARBOXYLIC ACID BUTYLAMIDE] | 187 to 189 |
| O=C(Nc1ccc(F)cc1)c1cn2nc(N3CCN(C(=O)c4ccccc4C(F)(F)F)CC3)ccc2n1 [Example 1.9, 6-[4-(2-TRIFLUOROMETHYLBENZOYL)PIPERAZIN-1-YL]-IMIDAZO[1,2-B]PYRIDAZINE-2-CARBOXYLIC ACID (4-FLUOROPHENYL)AMIDE] | 115 to 117 |

Continued, values first:

| melting point [°C] | SMILES |
| --- | --- |
| 265 to 268 | O=C(Nc1ccc(Cl)cn1)c1cn2nc(N3CCN(C(=O)c4ccccc4C(F)(F)F)CC3)ccc2n1 [Example 1.7, 6-[4-(2-TRIFLUOROMETHYLBENZOYL)PIPERAZIN-1-YL]IMIDAZO[1,2-B]PYRIDAZINE-2-CARBOXYLIC ACID (5-CHLOROPYRIDIN-2-YL)AMIDE] |
| 205 to 207 | O=C(NCc1ccc(F)cc1)c1cn2nc(N3CCN(C(=O)c4ccccc4C(F)(F)F)CC3)ccc2n1 [Example 1.8, 6-[4-(2-TRIFLUOROMETHYLBENZOYL)PIPERAZIN-1-YL]IMIDAZO[1,2-B]PYRIDAZINE-2-CARBOXYLIC ACID 4-FLUOROBENZYLAMIDE] |
